Experiments:
melanoma cell lines = assay: MHC class I expression across the panel of eight melanoma cell lines; format: cell-based, human
Experimental: (§1) The goal of this study was to measure the effects of binimetinib on cell surface MHC class I expression in various melanoma cell lines. In this study, eight melanoma cell lines were evaluated: MEL-JUSO (NRAS Q61L mutation), IPC-298 (NRAS Q61L mutation), A375 (BRAF V600E, homozygous mutation), HS936.T (NRAS Q61K mutation and BRAF N581K mutation), MM485 (NRAS Q61R mutation), SK-MEL-2 (NRAS Q61R mutation), MM415 (NRAS Q61L mutation), Malme-3M (BRAF V600E, heterozygous mutation). The cells lines were seeded into flat bottom 96-well tissue culture plates at a density of 5000 cells per well and allowed to adhere overnight. The following day cells were treated with vehicle control (0.25% DMSO) or varying dilutions of Binimetinib (0.7 nM-25000 nM) for 1 hour. Cells were then treated with vehicle control or 100 ng/ml IFNgamma (R&D systems) for 72 hours. Cells were washed, trypsinized, and stained with Alexa Fluor® 647 anti-human HLA-A,B,C antibody (W6/32, eBioscience) and analyzed on a BD FACSCanto II flow cytometer. An IFNg titration and time course were performed for assay optimization. Maximal induction of MHC class I expression was seen ˜100 ng/mL of IFNγ (see, e.g., FIGS. 1 and 2).

B16F10 tumors = assay: Growth of B16F10 melanoma tumors; format: in vivo
Experimental: [The procedure below names another cell line; the source lists this cell line under the same test.] (§2) 1% CMC/0.5% Tween-80 (CMCT) was prepared by adding 960 mL of distilled water to a 1000 mL Pyrex® glass bottle with a stir bar in the bottom, and was used as the oral vehicle. The water was warmed to 50-60° C. then 5 mL Tween® 80 (polyoxyethylenesorbitan monooleate, Sigma P2287, batch #054K0154) and 15.6 mL benzyl alcohol (Sigma 402834, Batch #00296PK) added. Carboxymethylcellulose (5 g, CMC, low viscosity, Sigma C5678, Batch #033K0008) was added slowly, over one hour. The solution was stirred until the CMC dissolved and the solution was clear. 30 mg/kg MEK162 (Binimetinib, 100% active) was prepared as a white, homogeneous suspension in CMCT. MEK162 was administered in 10 mL/kg and dosed at 30 mg/kg (3.0 mg/mL) by oral gavage. To prepare, dry test compound (90 mg) was weighed and 30 mL CMCT added. Dose suspension was sonicated until a fine suspension was achieved (˜15 min). Final dose suspension was stored at 4° C. during live phase and sonicated to resuspend prior to dose administration. Dose suspension was prepared every 4-5 days or as needed. 100 μg αPD-1 RMP1-14, Rat IgG2a isotype (BioXCell cat.no. BP0146, lot #5792×2/1015)−7.12 mg/mL stock concentration. RMP1-14 was prepared by dilution of 0.843 stock solution with 5.157 mL sterile saline for injection. The antibody was administered at 100 μg/animal (100 μL of a 1 mg/mL dose solution) by intraperitoneal injection.
(§3) Male BALB/c mice from Charles River (Wilmington, Mass.) were obtained at 6-8 weeks of age and housed in groups of 5. Following a two week acclimation period, a suspension of 1×10^5 cells in a volume of 100 μL saline was implanted subcutaneously on the right flank of the animal near the axillary region. Animals were then randomly assigned to treatment groups. Treatment was initiated on day 4 after CT26 tumor cell inoculation to allow for a sufficient treatment window. MEK162 was administered once daily (QD) for 14 consecutive days by oral gavage (PO) at 30 mg/kg and anti-PD1 antibody was administered twice weekly by intraperitoneal injection (IP) (Table 4).
(§4) The combination was evaluated as concomitant administration or sequential where MEK162 treatment was initiated at the time that tumor resistance from anti-PD1 treatment emerged. For the sequential treatment group, animals were enrolled in MEK162 treatment when tumors reached 350-400 mm^3 after anti-PD1 antibody therapy was initiated.
Animals were monitored for tumor growth and body weight 2-3 times per week based on outgrowth kinetics. Tumor diameter was measured with digital calipers, and the tumor volume in mm^3 was calculated by the formula: Volume=((width)^2×length)/2. TGI was calculated on day 15. Animals were removed from study if found moribund or if tumor volume exceeded 1400 mm^3. At that time, tumor tissue was harvested and frozen for later analysis of T-cell clonality by immune sequencing (Adaptive Biotech, San Diego, Calif.). […]
The mean values for tumor volume and body weight by study day for each experimental group were plotted including error bars for the standard error of the mean. % Tumor Growth Inhibition (% TGI): % TGI=100(1−Wt/Wc); Wt is the mean tumor volume of the treated group on day X; We is the mean tumor volume of controls on day X, where X is the last day that the control group is available in its entirety. […] Cures: Animals with no palpable tumor at the end of the study were scored as cures. […]

[1] = Binimetinib steady state exposure quoted in figure legends; conditions: total
Cloudman S91 tumors = assay: Growth of Cloudman S91 melanoma tumors; format: in vivo
MM485 (NRAS Q61R) cells = assay: MHC class I cell surface expression, flow cytometry; format: cell-based, human; conditions: 72 hours
Experimental: as §1

MM415 (NRAS Q61L) cells = assay: as above; format: cell-based, human; conditions: 72 hours
Experimental: as §1

[2] = test system: HS936.T (NRAS Q61K, BRAF N581K) cells; assay: as above; format: cell-based, human; conditions: 72 hours
Experimental: as §1

A375 (BRAF V600E) cells = assay: as above; format: cell-based, human; conditions: 72 hours
Experimental: as §1

[3] = test system: SKMEL-2 (NRAS Q61R) cells; assay: as above; format: cell-based, human; conditions: 72 hours
Experimental: as §1

[4] = test system: Malme-3M (BRAF V600E) cells; assay: as above; format: cell-based, human; conditions: 72 hours
Experimental: as §1

[5] = test system: MELJUSO (NRAS Q61L) cells; assay: as above; format: cell-based, human; conditions: for Maximal Fold Increase in MHC Class I Expression: MELJUSO (NRAS Q61L), 72 hours
Experimental: as §1

IPC298 (NRAS Q61L) cells = assay: as above; format: cell-based, human; conditions: 72 hours
Experimental: as §1

[6] = test system: KRas mutant CT26 syngeneic tumors; assay: Growth of KRas mutant CT26 murine colon syngeneic tumors; format: in vivo; conditions: for Cures (day 61): animals with no palpable tumor at study end
Experimental: as §2, §3, §4
Animals were monitored for tumor growth and body weight 2-3 times per week based on outgrowth kinetics. Tumor diameter was measured with digital calipers, and the tumor volume in mm^3 was calculated by the formula: Volume=((width)^2×length)/2. […] Animals were removed from study if found moribund or if tumor volume exceeded 1400 mm^3. At that time, tumor tissue was harvested and frozen for later analysis of T-cell clonality by immune sequencing (Adaptive Biotech, San Diego, Calif.). Food, water, temperature and humidity were according to Pharmacology Testing Facility performance standards (SOP's) which are in accordance with the 1996 Guide for the Care and Use of Laboratory Animals (NRC) and AAALAC-International.
The murine CT26 cell line (a.k.a. Colon 26 or Colon Tumor #26) was developed in 1975 by exposing BALB/c mice to N-nitroso-N-methylurethane-(NNMU) (Corbett et al., 1975). The undifferentiated colon carcinoma cell line with fibroblast morphology was isolated from BALB/c mice. Extensive genomics, immune phenotyping and therapeutic background are available on this cell line (information summarized from Bhadury et al., 2013, Castle et al., 2014). The cell line is reported to harbor a KRas G12D mutation and the in-house cell line was sequenced and found to match the reported mutation (BGI, Cambridge, Mass.). Literature reports expression of MHC class I but not II and a mutational load of 1688 non-synonymous point mutations; 154 are both in expressed genes and in peptides predicted to bind MHC. […]

RENCA tumors = assay: Growth of RENCA renal carcinoma tumors in retired mice; format: in vivo
Experimental: as §2, with “The water was warmed to 50-60° C. then 5 mL Tween® 80 (polyoxyethylenesorbitan monooleate, Sigma P2287, batch #054K0154) and 15.6 mL benzyl alcohol (Sigma 402834, Batch #00296PK) added.” left out, “100 μg αPD-1 RMP1-14, Rat IgG2a isotype (BioXCell cat.no. BP0146, lot #5792×2/1015)−7.12 mg/mL stock concentration. RMP1-14 was prepared by dilution of 0.843 stock solution with 5.157 mL sterile saline for injection.” left out
as §3, §4
Animals were monitored for tumor growth and body weight 2-3 times per week based on outgrowth kinetics. Tumor diameter was measured with digital calipers, and the tumor volume in mm^3 was calculated by the formula: Volume=((width)^2×length)/2. TGI was calculated on day 15. Animals were removed from study if found moribund or if tumor volume exceeded 1400 mm^3. At that time, tumor tissue was harvested and frozen for later analysis of T-cell clonality by immune sequencing (Adaptive Biotech, San Diego, Calif.).
Survival defined as morbidity, mortality or tumor size exceeding 1400 mm3. […] Cures: Animals with no palpable tumor at the end of the study were scored as cures. Maximum % Body Weight Loss (% BWL): % BWL=100(1−BWt/BW0); BW0 is group mean body weight at study start and BWt is group mean or median body weight on day where maximal body weight loss is observed. Tx-Related Deaths: Death occurring during live phase specifically due to drug administration and not attributable to other causes (e.g. gavage trauma, tumor-related morbidity, etc.)
For mice that were injected subcutaneously with RENCA cells, retired female breeders were used (23 weeks old). 200 μg of αPD-1 was administered on days 1, 4, 8 and 11.

## IFNγ: IFNgamma (R&D systems) used to induce MHC class I expression
Melanoma cell lines; IFNg titration, 72-hour treatment, FIGS. 1 and 2 (A375, SKMEL-2)
  IFNγ concentration giving maximal induction of MHC class I expression: ~100 ng/mL

## Cn1cnc2c(F)c(Nc3ccc(Br)cc3F)c(C(=O)NOCCO)cc21 [Binimetinib, 6-(4-bromo-2-fluorophenylamino)-7-fluoro-3-methyl-3H-benzoimidazole-5-carboxylic acid (2-hydroxyethoxy)-amide]
B16F10 tumors; B16F10 tumors
  Cures (day 61): 0/10
  Deaths: 2/10
B16F10 tumors; B16F10 tumors, C57BL/6 mice, binimetinib 30 mg/kg, anti-PD-1 100 μg
  % TGI (day 13): 59.0%
B16F10 tumors; B16F10 tumors, vehicle 14
  Median Survival: 19
B16F10 tumors; mouse, in vivo
  Max % BWL: 0.8%
[1]
  Trough (day 15): 310 nM
Cloudman S91 tumors
  Cures (day 44): 0/10
  Deaths: 0/10
Cloudman S91 tumors; DBA/2 mice, binimetinib 30 mg/kg, anti-PD-1 100 μg
  % TGI (day 8): −17%
Cloudman S91 tumors; vehicle 12.4
  Max % BWL: 4.8%
Cloudman S91 tumors; vehicle 13
  Median Survival: 11
MM485 (NRAS Q61R) cells; +IFNg 100 ng/ml
  Maximal Fold Increase in MHC Class I Expression: 2 fold
MM485 (NRAS Q61R) cells; −IFNg
  Maximal Fold Increase in MHC Class I Expression: 2 fold
MM415 (NRAS Q61L) cells; +IFNg 100 ng/ml
  Maximal Fold Increase in MHC Class I Expression: 2 fold
MM415 (NRAS Q61L) cells; −IFNg
  Maximal Fold Increase in MHC Class I Expression: 0 fold
[2]; +IFNg 100 ng/ml
  Maximal Fold Increase in MHC Class I Expression: 2 fold
[2]; −IFNg
  Maximal Fold Increase in MHC Class I Expression: 1.5 fold
A375 (BRAF V600E) cells; +IFNg 100 ng/ml
  Maximal Fold Increase in MHC Class I Expression: 4 fold
A375 (BRAF V600E) cells; −IFNg
  Maximal Fold Increase in MHC Class I Expression: 2 fold
[3]; +IFNg 100 ng/ml
  Maximal Fold Increase in MHC Class I Expression: 1.5 fold
[3]; −IFNg
  Maximal Fold Increase in MHC Class I Expression: 2 fold
[4]; +IFNg 100 ng/ml
  Maximal Fold Increase in MHC Class I Expression: 1.5 fold
[4]; −IFNg
  Maximal Fold Increase in MHC Class I Expression: 0 fold
[5]; MELJUSO (NRAS Q61L) cells, binimetinib alone, FIG. 5A
  increase in MHC class I expression: 2.5 fold
[5]; MELJUSO (NRAS Q61L) cells, in the presence of 100 ng/mL IFNg
  enhancement of IFNγ-induced MHC class I expression: 4-5 fold
[5]; +IFNg 100 ng/ml
  Maximal Fold Increase in MHC Class I Expression: 4 fold
[5]; −IFNg
  Maximal Fold Increase in MHC Class I Expression: 3 fold
IPC298 (NRAS Q61L) cells; +IFNg 100 ng/ml
  Maximal Fold Increase in MHC Class I Expression: 3 fold
IPC298 (NRAS Q61L) cells; −IFNg
  Maximal Fold Increase in MHC Class I Expression: 2 fold
[6]; BALB/c mice
  Deaths: 0/10
[6]; BALB/c mice, MEK162 30 mg/kg PO QD x14, anti-PD1 100 μg IP D 1, 4, 8, 11
  % TGI (Day 13): 43%
[6]; BALB/c mice, MEK162 30 mg/kg PO QD x14, anti-PD1 100 μg IP D 1, 4, 8, 11, 30 mg/kg
  % TGI (Day 13): 43%
[6]; BALB/c mice, maximum body weight loss
  Max % BWL: 0.6%
[6]; BALB/c mice, vehicle 18 days
  Median Survival: 26 days
[6]
  Cures (day 61): 0/10
[6]; listed as MEK162
  Cures (day 61): no cures
RENCA tumors; retired mice
  Cures (day 43): 0/12
RENCA tumors; retired mice (23 weeks of age), binimetinib 30 mg/kg, αPD-1 200 μg days 1, 4, 8 and 11
  % TGI (day 18): 25%
RENCA tumors; retired mice, vehicle 9/12
  Deaths: 10/12
RENCA tumors; retired mice, vehicle 15.1
  Maximum % BWL: 23.3%
RENCA tumors; retired mice, vehicle 21
  Median Survival: 24
Melanoma cell lines; binimetinib alone, eight melanoma cell lines
  melanoma cell lines with increased MHC class I cell surface expression: 6 of 8
Melanoma cell lines; binimetinib alone, in 6 of 8 melanoma cell lines
  fold increase in MHC class I cell surface expression: 1.5-3 fold
Melanoma cell lines; with IFNg, all tested cell lines
  fold increase of IFNg-induced MHC class I: 1.5-4 fold

— patent US20200368205A1, “METHODS AND COMBINATION THERAPY TO TREAT CANCER” (ARRAY BIOPHARMA INC., priority 2018, published 2020)
